Test results reported in paper PMC7382816 (BMC Pharmacology & Toxicology, 2020).
Where two headings read alike, the source gives them in different places.

Key:
[1] = Single-dose pharmacokinetics in healthy volunteers under fasting and fed (high-fat breakfast) conditions, plasma concentrations by HPLC-MS, non-compartmental analysis; type: in vivo, human; parameters: Ke: unit not given here; details: for AUC(0-inf) / CL/F / Vd/F / half-life / Cmax / Tmax: human, plasma; for Cmax: read-out: Cmax
From the text: The bioequivalence clinical trials were phase I, randomized, open-label, crossover, single-centre, with two periods separated by a 7-day washout stage. Subjects were randomised to one of the two treatment sequences, RT or TR where R was the reference formulation and T was the test formulation. Each of the clinical trial was crossover for evaluation of a test formulation compared to a reference formulation either under fed or fasting conditions. […] The treatments were allocated in a balanced manner on every inclusion day (blocks of 4 subjects). Our study adheres to CONSORT guidelines. […] Sample processing, genotyping for CYP2C19 and drug quantification were performed according to Román et al. […] Pharmacokinetic parameters were estimated from the plasma concentration–time data by non-compartmental analysis (WinNonlin Professional, version 2.0., Pharsight Corporation, USA) as reported by Román et al. […] WinNonLin Professional software version 2.0 was used for the statistical analysis. Pharmacokinetic parameters were log-transformed, and AUC and Cmax were adjusted for dose and weight. The values of pharmacokinetic parameters were expressed as mean ± standard deviation.

[2] = 40 mg; ref [27] Huber et al.; cited from earlier work
[3] = both sexes, oral, only CYP2C19*1/*1 subjects, Fast, men and women, mean ± SD
[4] = both sexes, oral, only CYP2C19*1/*1 subjects, Fed, men and women, mean ± SD
[5] = both sexes, po, Fast, all subjects, single oral dose, mean ± SD
[6] = both sexes, po, Fed (high-fat breakfast), all subjects, single oral dose, mean ± SD
[7] = female, oral, only CYP2C19*1/*1 subjects, Fast, women, mean ± SD
[8] = female, oral, only CYP2C19*1/*1 subjects, Fed, women, mean ± SD
[9] = female, po, Fast, women, single oral dose, mean ± SD
[10] = female, po, Fed, women, single oral dose, mean ± SD
[11] = male, oral, only CYP2C19*1/*1 subjects, Fast, men, mean ± SD
[12] = male, oral, only CYP2C19*1/*1 subjects, Fed, men, mean ± SD
[13] = male, po, Fast, men, single oral dose, mean ± SD
[14] = male, po, Fed, men, single oral dose, mean ± SD

Work on `COc1ccnc(C[S+]([O-])c2nc3ccc(OC(F)F)cc3[nH]2)c1OC` (stereo not drawn) [Pantoprazole, pantoprazole] yielded a Ke ([1]; Fast, all subjects, single oral dose, mean ± SD) of 0.61 ± 0.21, a Ke ([1]; Fast, men, single oral dose, mean ± SD) of 0.56 ± 0.23 and a Ke ([1]; Fast, women, single oral dose, mean ± SD) of 0.65 ± 0.18. It also gave a Ke ([1]; Fed (high-fat breakfast), all subjects, single oral dose, mean ± SD) of 0.63 ± 0.21, a Ke ([1]; Fed, men, single oral dose, mean ± SD) of 0.61 ± 0.23 and a Ke ([1]; Fed, women, single oral dose, mean ± SD) of 0.65 ± 0.19. For the same compound, the AUC(0-inf) [1, 3] was 6090 ± 2920 ng·h/mL, the CL/F [1, 3] was 2 mL/min/kg and the Vd/F [1, 3] was 0.18 ± 0.03 L/kg. For the same compound, the half-life [1, 3] was 1.2 ± 0.4 h, the Cmax [1, 3] was 2540 ± 836 ng/mL and the Tmax ([1]; both sexes, oral, only CYP2C19*1/*1 subjects, Fast, men and women, mean ± SD, read-out: Tmax) was 3 ± 0.7 h. It also gave an AUC(0-inf) [1, 4] of 4690 ± 2300 ng·h/mL, a CL/F [1, 4] of 2.67 mL/min/kg and a Vd/F [1, 4] of 0.24 ± 0.05 L/kg. It also gave a half-life [1, 4] of 1.2 ± 0.5 h, a Cmax [1, 4] of 2660 ± 531 ng/mL and a Tmax ([1]; both sexes, oral, only CYP2C19*1/*1 subjects, Fed, men and women, mean ± SD, read-out: Tmax) of 5.7 ± 1.2 h. It also gave a Tmax ([1]; both sexes, oral, under fasting conditions, range among subjects, read-out: Tmax range) of 1.5 to 5 h, a Tmax ([1]; both sexes, oral, under fed conditions, range among subjects, read-out: Tmax range) of 1 to 21 h and an AUC(0-inf) [1, 5] of 6950 ± 3290 ng·h/mL. For the same compound, the CL/F [1, 5] was 1.83 mL/min/kg, the Vd/F [1, 5] was 0.17 ± 0.03 L/kg and the half-life [1, 5] was 1.3 ± 0.6 h. For the same compound, the Cmax [1, 5] was 2780 ± 862 ng/mL, the Tmax ([1]; both sexes, po, Fast, all subjects, single oral dose, mean ± SD, read-out: Tmax) was 3 ± 0.8 h and the AUC(0-inf) [1, 6] was 4630 ± 2020 ng·h/mL. The CL/F [1, 6] was 2.67 mL/min/kg, the Vd/F [1, 6] was 0.26 ± 0.1 L/kg and the half-life [1, 6] was 1.3 ± 0.6 h. The Cmax [1, 6] was 2650 ± 603 ng/mL, the Tmax ([1]; both sexes, po, Fed (high-fat breakfast), all subjects, single oral dose, mean ± SD, read-out: Tmax) was 7 ± 3 h and the “AUC lower under fed conditions” value ([1]; fed vs fasting, all subjects) was 33%. The “Delay of mean Tmax (absorption) by food” value ([1]; fed vs fasting, all subjects) was “around 4 h”, the “Delay of Tmax by food” value ([1]; fed vs fasting, only subjects with CYP2C19*1/*1) was 2.7 h and the AUC(0-inf) [1, 7] was 7820 ± 2700 ng·h/mL. For the same compound, the CL/F [1, 7] was 1.83 mL/min/kg, the Vd/F [1, 7] was 0.16 ± 0.04 L/kg and the half-life [1, 7] was 1.1 ± 0.2 h. It also gave a Cmax [1, 7] of 3230 ± 685 ng/mL, a Tmax ([1]; female, oral, only CYP2C19*1/*1 subjects, Fast, women, mean ± SD, read-out: Tmax) of 2.9 ± 0.8 h and an AUC(0-inf) [1, 8] of 4910 ± 2190 ng·h/mL. For the same compound, the CL/F [1, 8] was 2.83 mL/min/kg, the Vd/F [1, 8] was 0.25 ± 0.06 L/kg and the half-life [1, 8] was 1.1 ± 0.3 h. For the same compound, the Cmax [1, 8] was 2790 ± 476 ng/mL, the Tmax ([1]; female, oral, only CYP2C19*1/*1 subjects, Fed, women, mean ± SD, read-out: Tmax) was 6.2 ± 1.1 h and the AUC(0-inf) [1, 9] was 7320 ± 2710 ng·h/mL. The CL/F [1, 9] was 1.83 mL/min/kg, the Vd/F [1, 9] was 0.16 ± 0.03 L/kg and the half-life [1, 9] was 1.1 ± 0.3 h. The Cmax [1, 9] was 3240 ± 859 ng/mL, the Tmax ([1]; female, po, Fast, women, single oral dose, mean ± SD, read-out: Tmax) was 2.9 ± 0.8 h and the AUC(0-inf) [1, 10] was 4660 ± 1790 ng·h/mL. For the same compound, the CL/F [1, 10] was 2.83 mL/min/kg, the Vd/F [1, 10] was 0.28 ± 0.12 L/kg and the half-life [1, 10] was 1.2 ± 0.7 h. For the same compound, the Cmax [1, 10] was 2700 ± 614 ng/mL, the Tmax ([1]; female, po, Fed, women, single oral dose, mean ± SD, read-out: Tmax) was 8.4 ± 3.7 h and the AUC(0-inf) [1, 11] was 4780 ± 2470 ng·h/mL. It also gave a CL/F [1, 11] of 2.33 mL/min/kg, a Vd/F [1, 11] of 0.2 ± 0.02 L/kg and a half-life [1, 11] of 1.3 ± 0.5 h. The Cmax [1, 11] was 2020 ± 493 ng/mL, the Tmax ([1]; male, oral, only CYP2C19*1/*1 subjects, Fast, men, mean ± SD, read-out: Tmax) was 3 ± 0.7 h and the AUC(0-inf) [1, 12] was 4520 ± 2520 ng·h/mL. The CL/F [1, 12] was 2.5 mL/min/kg, the Vd/F [1, 12] was 0.23 ± 0.03 L/kg and the half-life [1, 12] was 1.2 ± 0.6 h. It also gave a Cmax [1, 12] of 2560 ± 581 ng/mL, a Tmax ([1]; male, oral, only CYP2C19*1/*1 subjects, Fed, men, mean ± SD, read-out: Tmax) of 5.3 ± 1.1 h and an AUC(0-inf) [1, 13] of 6580 ± 3830 ng·h/mL. It also gave a CL/F [1, 13] of 1.83 mL/min/kg, a Vd/F [1, 13] of 0.18 ± 0.03 L/kg and a half-life [1, 13] of 1.5 ± 0.7 h. For the same compound, the Cmax [1, 13] was 2320 ± 581 ng/mL, the Tmax ([1]; male, po, Fast, men, single oral dose, mean ± SD, read-out: Tmax) was 3.1 ± 0.8 h and the AUC(0-inf) [1, 14] was 4610 ± 2270 ng·h/mL. For the same compound, the CL/F [1, 14] was 2.5 mL/min/kg, the Vd/F [1, 14] was 0.25 ± 0.08 L/kg and the half-life [1, 14] was 1.3 ± 0.5 h. It also gave a Cmax [1, 14] of 2590 ± 601 ng/mL, a Tmax ([1]; male, po, Fed, men, single oral dose, mean ± SD, read-out: Tmax) of 5.6 ± 1.1 h and a Ke ([1]; only CYP2C19*1/*1 subjects, Fast, men and women, mean ± SD) of 0.64 ± 0.19. The Ke ([1]; only CYP2C19*1/*1 subjects, Fast, men, mean ± SD) was 0.64 ± 0.23, the Ke ([1]; only CYP2C19*1/*1 subjects, Fast, women, mean ± SD) was 0.63 ± 0.12 and the Ke ([1]; only CYP2C19*1/*1 subjects, Fed, men and women, mean ± SD) was 0.67 ± 0.20. The Ke ([1]; only CYP2C19*1/*1 subjects, Fed, men, mean ± SD) was 0.67 ± 0.25, the Ke ([1]; only CYP2C19*1/*1 subjects, Fed, women, mean ± SD) was 0.68 ± 0.14 and the “effect of concomitant intake of a standard breakfast on bioavailability” value [2] was “no effect on bioavailability”.
